Source: US7622289B2, “Ornithine aminotransferase (OAT): a target for anticancer drugs” (Board of Regents, The University of Texas System, priority 2006, dated 2009)
Residues, ends and D or L forms follow the SMILES beside them. *: point of attachment. Cbz = O=C(OCc1ccccc1)*; CH2F = FC*

Tests used:
OAT enzymatic activity = molecular target: T1, OAT enzymatic activity (Mus musculus, UniProt P29758); assay: Ornithine aminotransferase activity in crude mitochondrial extracts from mouse liver; assay type: biochemical; details: increasing concentrations
T1 construct: Crude mitochondrial extracts from mouse liver were assayed for ornithine aminotransferase activity; from tissue; host or cells: mouse liver, crude mitochondrial extract
T1 sequence (P29758 26-439): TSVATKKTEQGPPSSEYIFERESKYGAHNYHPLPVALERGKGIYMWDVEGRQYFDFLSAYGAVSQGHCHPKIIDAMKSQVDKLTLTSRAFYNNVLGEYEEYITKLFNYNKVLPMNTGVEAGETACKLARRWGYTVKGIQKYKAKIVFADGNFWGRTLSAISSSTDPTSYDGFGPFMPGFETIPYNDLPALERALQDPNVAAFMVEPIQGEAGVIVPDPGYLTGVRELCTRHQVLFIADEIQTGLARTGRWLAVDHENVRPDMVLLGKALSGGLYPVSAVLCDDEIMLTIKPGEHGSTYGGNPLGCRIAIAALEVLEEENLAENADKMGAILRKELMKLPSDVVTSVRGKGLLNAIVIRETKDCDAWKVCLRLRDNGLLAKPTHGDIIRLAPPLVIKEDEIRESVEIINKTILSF
Protocol: To determine if diazonamide binds to OAT directly, recombinant His-tagged hOAT was produced in bacteria, purified, and incubated with compound 3-coated avidin agarose. […] We next examined the impact of diazonamide binding on OAT enzymatic activity. Crude mitochondrial extracts from mouse liver were assayed for ornithine aminotransferase activity in the presence of increasing concentrations of compounds 2 or 3.

HeLa cell = HeLa cell growth inhibition; assay type: cell-based, human
Protocol: Biotin conjugate 3 (Table 1) was prepared to facilitate isolation of diazonamide binding proteins using avidin-based affinity chromatography. […] As a negative control, seco analog 5 was synthesized:
This molecule is identical to 3 except it lacks the biaryl linkage connecting carbons 16 and 18 (Table 1).

HeLa cells = assay: Mitotic arrest and spindle phenotype in HeLa cells; assay type: cell-based, human; details: 30 nM, eighteen hours following dosage
From the text: Suitable spindle assembly systems include Xenopus egg extracts, Hela cells, COS-7 cells, CHO cells, U20S cells, etc. An agent-biased spindle assembly is a spindle-assembly that has a phenotype that differs from that of the first spindle assembly (i.e. the normal control). […] The spindle phenotypes are typically visualized by fixing the cells or cell extracts and differentially staining the α-tubulin and DNA [5]. Spindle assembly can also be visualized by live cell imaging.
Biotin conjugate 3 (Table 1) was prepared to facilitate isolation of diazonamide binding proteins using avidin-based affinity chromatography. […] As a negative control, seco analog 5 was synthesized: […]

[1] = system: wild-type human fibroblasts; assay: Mitotic arrest (cell rounding) in wild-type human fibroblasts; assay type: cell-based; details: 10 nM for 30 hrs
Protocol: (§1) The OAT locus has been examined in fibroblasts derived from GA patients wherein various point and nonsense mutations have been characterized (20). Such cell lines offered another means to solidify the connection between OAT, diazonamide, and its anti-mitotic properties. When wild-type human fibroblasts were exposed to 10 nM diazonamide A for 30 hrs, >60% of cells rounded up—indicative in this case of mitotic arrest. […] Among the mutant cell lines examined only R154L and R180T variants express OAT protein.

[2] = system: fibroblast lines derived from gyrate atrophy patients harboring OAT mutations; assay: Mitotic arrest (cell rounding) in gyrate atrophy patient fibroblasts; assay type: cell-based, human; details: OAT mutations: initiator methionine, R154L, R180T, W391 nonsense
Protocol: as §1

BS-C-1 and PTK2 culture = assay: Interphase microtubules in BS-C-1 and PTK2 culture; assay type: cell-based; details: at GI50 concentrations
Protocol: COMPARE pattern analysis of observed cytotoxic/cytostatic activities implied a mechanistic correlation between diazonamide and microtubule de-polymerizing agents such as maytansine and vinblastine. […] To test this possibility, a synthetic variant of diazonamide A (2, Table 1) was prepared.

[3] = system: cultured human cancer cell; details: cited from earlier work
tubulin = details: cited from earlier work
[4] = system: endogenous OAT in HeLa cells; assay: OAT siRNA knock-down in HeLa cells; assay type: cell-based, human; details: added to OAT siRNA-treated HeLa cells
From the text: OAT is well characterized as a mitochondrial matrix enzyme. In this context it regulates flux through the urea cycle and couples, indirectly, proline biosynthesis to the availability of fumarate for consumption in the TCA cycle (19). For reasons not completely understood, mutations in the human enzyme are associated with a progressive degeneration of the retina and choroid termed gyrate atrophy (20).

SMILES: C#CC(N)CCC(=O)O (centres unmarked) [4-aminohex-5-ynoic acid]
- inhibition of conversion of L-ornithine to L-Δ1-pyrroline-5-carboxylic acid (OAT enzymatic activity): suppressed the activity in a dose dependent manner

SMILES: CC(C)[C@H](O)C(=O)N[C@H]1Cc2ccc3c(c2)[C@]24C5=C(N=C(O5)[C@H](C(C)C)NC1=O)c1nc(Cl)c(o1)-c1c(Cl)[nH]c5cccc(c15)-c1cccc2c1N[C@@H]4O3 [Compound 1, (-)-diazonamide A]
- GI50 (HeLa cell): 5 nM
- spindle phenotype (HeLa cells): multi-pole spindle phenotype with misaligned chromosomes
- cells rounded up (mitotic arrest) [1]: > 60%
- response of gyrate atrophy fibroblast lines [2]: resistant to the compound
- impact on interphase microtubules (BS-C-1 and PTK2 culture): little impact on interphase microtubules
- concentration inhibiting cultured human cancer cell growth [3]: low nanomolar concentrations
- competition with vinca alkaloids or nocadazole for tubulin binding (tubulin): did not compete
- purified tubulin polymerization in vitro (tubulin): inhibit purified tubulin polymerization in vitro

SMILES: N=C(N)NCCC[C@H](N)C(=O)O [L-arginine]
- blocking of cell death in OAT siRNA-treated cells [4]: failed to attenuate the rate of death or restore normal spindle assembly

SMILES: CC(NC(=O)C(NC(=O)OCc1ccccc1)C(C)C)C(=O)NC(CC(=O)O)C(=O)CF (stereo not drawn) [Z-VAD] (Cbz-Val-Ala-Asp-CH2F; configuration not given here)
- blocking of cell death in OAT siRNA-treated cells [4]: not blocked
